Results: patent US20230165836A1, “ALPHA-2 ADRENERGIC RECEPTOR AGONISTS FOR THE TREATMENT OF CANCER” (UNIVERSITÉ CATHOLIQUE DE LOUVAIN, priority 2020, published 2023)
Entries after “also recorded” stand apart in the source; their conditions may differ.

Columns and labels:
[1] = tested on: B16F1 melanoma; experiment: B16F1 melanoma in immune deficient mice; assay type: in vivo; conditions: B16F1 in immune deficient NSG mice; 5 mg/kg, i.p.
Description: FIGS. 10A-B is a set of curves showing the tumor growth of B16F1 melanoma in C57BL/6J (FIG. 10A) or immunodeficient NSG mice (FIG. 10B) treated with PBS (Control, curve 1) or clonidine (5 mg/kg, i.p., curve 2).
FIGS. 11A-B is a set of curves showing the tumor growth of B16F1 melanoma in C57BL/6J (FIG. 11A) or NSG mice (FIG. 11B) treated with PBS (Control, curve 1) or guanfacine (5 mg/kg, i.p., curve 2).

[2] = tested on: lung cancer; experiment: Tumor model: lung cancer; assay type: in vivo, mice; conditions: lung cancer (FIG. 22D, 23D)
From the text: (§1) FIGS. 23A-H is a set of curves showing the tumor growth of mice treated with PBS (Control, circles) or guanabenz (GBZ, triangles) in different tumor models: such as mammary gland tumor (FIG. 23A), hepatocellular carcinoma (FIG. 23B), T cell lymphoma (FIG. 23C), lung cancer (FIG. 23D), myeloma (FIG. 23E), mammary adenocarcinoma (FIG. 23F), renal cancer (FIG. 23G) and fibrosarcoma (FIG. 23H).

[3] = tested on: myeloma; experiment: Tumor model: myeloma; assay type: in vivo, mice; conditions: myeloma (FIG. 22E, 23E)
From the text: as §1

[4] = tested on: MC38 colon carcinomas; experiment: MC38 colon carcinoma in wildtype mice; assay type: in vivo, C57BL/6 Wildtype mice; conditions: 5 mg/kg, i.p. daily from tumor size around 50 mm^3
Description: C57BL/6 Wildtype or C57BL/6 Adra2a KO mice bearing MC38 colon carcinomas received daily injections of vehicle control (PBS), clonidine (5 mg/kg, i.p.) or guanabenz (5 mg/kg, i.p.), when the tumor size was around 50 mm^3, until the day of sacrifice.

[5] = tested on: mammary adenocarcinoma; experiment: Tumor model: mammary adenocarcinoma; assay type: in vivo, mice; conditions: mammary adenocarcinoma (FIG. 22F, 23F)
From the text: as §1

[6] = tested on: prostate cancer; experiment: Xenograft model of prostate cancer in NSG mice treated with PBMC; assay type: in vivo
[7] = tested on: TiRP melanoma; experiment: TiRP melanoma model, monotherapy; assay type: in vivo; conditions: TiRP+/+ mice; 5 mg/kg, i.p. daily from tumor size around 250 mm^3
Description: FIGS. 14A-B is a set of curves showing the tumor growth (melanoma) in TiRP+/+ mice that have received daily injections of guanfacine (5 mg/kg, i.p. triangles; FIG. 14A), clonidine (5 mg/kg, i.p., circles; FIG. 14B), or control (PBS, i.p., squares), when the tumor size was around 250 mm^3 until sacrifice.
TiRP mice have been created by crossing Ink4a/Are^flox/flox mice with mice carrying a transgenic construct controlled by the tyrosinase promoter and driving the expression of H-Ras ^12V and Trapl a which encodes a MAGE-type tumor antigen P1A; the promoter is separated from the coding region by a stop cassette made of a floxed self-deleting CreER (Huijbers et al., 2006, Cancer Res 66, 3278-3286). Those mice were backcrossed to a B10.D2 background and bred to homozygosity. TCRP1A mice heterozygous for the H-2Ld/P1A35-43-specific TCR transgene were kept on the B10.D2;Rag1^−/− background (Shanker et al., 2004, J Immunol 172, 5069-5077). […]
A fresh solution of 40H-Tamoxifen was prepared by dissolving 40H-Tamoxifen (Imaginechem®) in 100% ethanol and mineral oil (ratio 1:9) followed by 30 min sonication, and injected subcutaneously (2 mg/200 uL per mouse) in the neck area of gender-matched 7 weeks old TiRP mice. Tumor appearance was monitored daily and tumors were measured three times/week. Tumor volume (in mm^3) was calculated by the following formula: Volume=width^2×length/2.

[8] = tested on: JAK2V617F allele burden; experiment: Myelofibrosis by JAK2V617F bone marrow transplantation, allele burden; assay type: in vivo, C57BL/6 mice; conditions: 5 mg/kg i.p. daily; Day 7 versus Day 0
Description: Bone marrow from primary CD45.2 JAK2V617F mice was mixed 1:1 with CD45.1 C57BL/6 marrow and transplanted into lethally irradiated CD45.2 C57BL/6 recipients. 1 month after bone marrow transplantation, mice were randomized into three groups and received daily i.p injection of 5 mg/kg of clonidine, guanabenz or PBS. Blood was taken on Day 0 (Just before the treatment) and on Day 7 (7 days after the treatment). The allele burden was assessed as a fraction of CD45.2 cells along total CD45 cells in the blood of mice.
Decreased JAK2V617F allele burden is a golden standard method to evaluate the disease progression of MF.

[9] = tested on: T cell lymphoma; experiment: Tumor model: T cell lymphoma; assay type: in vivo, mice; conditions: T cell lymphoma (FIG. 22C, 23C)
From the text: as §1

[10] = tested on: hepatocellular carcinoma; experiment: Tumor model: hepatocellular carcinoma; assay type: in vivo, mice; conditions: hepatocellular carcinoma (FIG. 22B, 23B)
From the text: as §1

[11] = tested on: CT26 colon carcinomas; experiment: CT26 colon carcinoma model, daily i.p. treatment, tumor volume; assay type: in vivo, BALB/c mice; conditions: CT26 in BALB/c mice; 5 mg/kg, i.p. daily from tumor size around 50 mm^3 until sacrifice
Description: Mice received a daily intra-peritoneal injection of guanabenz (5 mg/kg) or vehicle (PBS) from the day of randomization (and the day of ACT when applicable) until the day of sacrifice. For the co-administration of adrenergic receptor agonist and antagonist, BALB/c mice bearing CT26 colon carcinomas received daily injections of vehicle control, guanabenz (5 mg/kg, i.p.), or guanabenz (5 mg/kg, i.p.) plus yohimbine (10 mg/kg, i.p.), when the tumor size was around 50 mm^3, until the day of sacrifice.
[…] mice were injected subcutaneously with 2×10^6 CT26 colon tumor cells at an age of 6 to 8 weeks. […] For evaluation of yohimbine on the effect of clonidine and guanabenz, the mice were randomized into different groups when tumors size arrived around 100 mm^3 and received daily injections of guanabenz (5 mg/kg, i.p.), yohimbine (10 mg/kg), a mix of guanabenz (5 mg/kg, i.p.) and yohimbine (10 mg/kg, i.p.), clonidine (5 mg/kg, i.p.), a mix of clonidine (5 mg/kg, i.p.) and yohimbine (10 mg/kg, i.p.) or vehicle control. Tumor size was measured every 2 days and mice were sacrificed when the tumor in control group reached 1,000 mm^3.

Compound: Clc1cccc(Cl)c1N=C1NCCN1 [clonidine]
- tumor growth [1]: No tumor inhibition was found
- tumor growth [2]: strong tumor inhibition
- tumor growth [3]: strong tumor inhibition
- tumor growth [4]: significant tumor inhibition
- tumor growth [5]: strong tumor inhibition
- tumor growth [6]: strong tumor inhibition
- tumor volume, monotherapy [7]: efficient in decreasing the tumor volume
- JAK2V617F allele burden (CD45.2 cells among total CD45 cells in blood) [8]: decrease of JAK2V617F allele burden in a number of mice
- tumor growth [9]: strong tumor inhibition
- tumor growth [10]: strong tumor inhibition
- tumor growth (tumor volume) [11]: promotes a decrease of the tumor volume; also recorded: strongly inhibited CT26 tumor growth
